Article PMC6945062, “Aβ43‐producing PS1 FAD mutants cause altered substrate interactions and respond to γ‐secretase modulation” (EMBO Reports, 2019)
Converted amounts (≈) assume the structure as drawn.

Legend:
[1] = system: PS1 WT or FAD mutant γ‐secretase; assay: ELISA of Aβ species in conditioned media of HEK293/sw cells overexpressing WT or mutant PS1; type: cell-based, human
Procedure: For GSM treatments, the cells were grown to a confluence of 70–80%. Thereafter, medium was changed to fresh medium containing either DMSO vehicle control or GSM at the indicated concentration and the cells were incubated for 16–18 h before Aβ analysis of conditioned medium. […] Mouse N2a cells stably overexpressing swAPP were cultured in DMEM (high glucose) supplemented with 10% FCS and 1 mM sodium pyruvate and treated with GSM as described above.
(§1) Immunoblot analysis of PS1 and PS2, NCT, full‐length APP, C‐terminal APP fragments, secreted APPs, and Aβ was performed as described 52. To analyze GSM dose responses and determine IC50 values for Aβ42 inhibition, secreted Aβ species of HEK293/sw cells were analyzed by sandwich immunoassay (MSD) using SULFO‐tagged C‐terminal specific antibodies to Aβ38, Aβ40, and Aβ42 as described before 26 or, in case of H4/sw and N2a/sw cells by an Aβ42 AlphaLISA immunoassay kit according to the instructions of the supplier (PerkinElmer). Notch1 cleavage reporter assay was carried out as described 51. GSM‐mediated changes of secreted Aβ species in conditioned medium of PS1 WT or mutant expressing HEK293/sw cells were quantified by ELISA using end‐specific C‐terminal antibodies to Aβ38, Aβ40, Aβ42, and Aβ43 obtained from IBL as described previously 16. Mass spectrometry analysis of secreted Aβ species was performed after immunoprecipitation using antibody 4G8 as described previously 17. Individual Aβ species were analyzed by immunoblotting, using Tris–Bicine urea SDS–PAGE 53. To improve the separation of longer Aβ species (e.g., Aβ42/43), the separation gel was adjusted to 8% acrylamide and 8 M urea. Aβ37 and Aβ38 generated in cell‐free γ‐secretase assays were analyzed by sandwich immunoassay (MSD) as above using SULFO‐tagged species‐specific antibodies. AICD generation in these assays was analyzed by immunoblotting with Penta‐His antibody after sample separation on 10–20% Tris–Tricine gels (Invitrogen). Protein bands from immunoblots were quantified using the LAS‐4000 image reader (Fujifilm Life Science) and Multi‐Gauge V3.0 software for analysis.

[2] = system: CHAPSO‐solubilized γ‐secretase; assay: Cell‐free γ‐secretase assay with recombinant C100‐His6 (AICD generation); type: biochemical, human; settings: 2.5 μM, WT and mutant PS1
Procedure: as §1, with “Mass spectrometry analysis of secreted Aβ species was performed after immunoprecipitation using antibody 4G8 as described previously 17.” left out, “To improve the separation of longer Aβ species (e.g., Aβ42/43), the separation gel was adjusted to 8% acrylamide and 8 M urea.” left out, “analysis. […]” for “analysis.”

[3] = system: C99–PS1 interaction (CHAPSO‐solubilized γ‐secretase); assay: C99 V44Bpa photocrosslinking to PS1 in CHAPSO lysates; type: binding, human
Procedure: Bpa‐containing C99‐based γ‐secretase substrates were prepared as described previously 22. CHAPSO‐lysates were prepared from HEK293/sw cells co‐expressing either PS1 WT or PS1 mutants. Photocrosslinking was performed as described before 22. Crosslinking of the substrates was analyzed by immunoblotting using antibodies against the PS1 NTF as described 22. For substrate crosslinking experiments in the presence of RO7019009, the cell lysates were pre‐incubated for 30 min on ice with RO7019009 or DMSO vehicle before the addition of C99 V44Bpa and subsequent photocrosslinking.

[4] = LogD (octanol-water distribution coefficient); type: physicochemical; settings: pH 7.4
Description: (§2) ^aLogD= logarithm of the octanol-water distribution coefficient at pH 7.4; ^bPAMPA: Parallel artificial membrane parallel assay; ^cCLmicr (h/m): human/mouse microsomal clearance

[5] = system: γ‐secretase (total Aβ secretion in HEK293/sw cells); assay: Immunoblot analysis of total Aβ in conditioned media of HEK293/sw cells; type: cell-based, human
Procedure: (§3) Single‐cell clones of HEK293 cells stably co‐expressing swAPP with WT and mutant PS1 constructs were cultured as described 50. For GSM treatments, the cells were grown to a confluence of 70–80%. Thereafter, medium was changed to fresh medium containing either DMSO vehicle control or GSM at the indicated concentration and the cells were incubated for 16–18 h before Aβ analysis of conditioned medium. Single‐cell clones of H4 overexpressing swAPP and HEK293‐based Notch1 reporter cell lines were cultured and treated with GSM as described 51. […]
(§4) Immunoblot analysis of PS1 and PS2, NCT, full‐length APP, C‐terminal APP fragments, secreted APPs, and Aβ was performed as described 52. To analyze GSM dose responses and determine IC50 values for Aβ42 inhibition, secreted Aβ species of HEK293/sw cells were analyzed by sandwich immunoassay (MSD) using SULFO‐tagged C‐terminal specific antibodies to Aβ38, Aβ40, and Aβ42 as described before 26 or, in case of H4/sw and N2a/sw cells by an Aβ42 AlphaLISA immunoassay kit according to the instructions of the supplier (PerkinElmer). […] GSM‐mediated changes of secreted Aβ species in conditioned medium of PS1 WT or mutant expressing HEK293/sw cells were quantified by ELISA using end‐specific C‐terminal antibodies to Aβ38, Aβ40, Aβ42, and Aβ43 obtained from IBL as described previously 16. […]

Solubility = type: physicochemical
Description: Supplement EMBR-21-e47996-s003.docx, table 1: Table EV1. RO7019009 key physicochemical and pharmacokinetic properties predicting CNS drug-likeness | column: Solubility (µg/ml)

[6] = Mouse microsomal clearance; type: in vitro ADME; settings: mouse microsomes, read-out: CLmicr mouse microsomal clearance
Description: as §2

[7] = system: PS1 WT or FAD mutant γ‐secretase; assay: Mass spectrometry analysis of Aβ species from HEK293/sw cells overexpressing WT or mutant PS1; type: cell-based, human; settings: all mutants, 500 nM
Procedure: as §3, §4

[8] = Human microsomal clearance; type: in vitro ADME; settings: human microsomes, read-out: CLmicr human microsomal clearance
Description: as §2

Notch1 cleavage = assay: HEK293 cell‐based Notch1 luciferase reporter assay; settings: Homo sapiens; HEK293‐based Notch1 luciferase reporter cell line; n = 2
Procedure: as §3, §4

PAMPA permeability = type: in vitro ADME
Description: as §2

C99 V44Bpa [9] = assay: photocrosslinking of C99 V44Bpa to PS1 NTF, immunoblot quantitation; settings: box plot median, n = 7–11 biological replicates, read off a plot
C99 V44Bpa [10] = assay: photocrosslinking of C99 V44Bpa to full-length PS1, immunoblot quantitation; settings: box plot median, n = 7–11 biological replicates, read off a plot
[11] = PS1 L166P mutant, HEK293/sw cells
[12] = PS1 R278I and L166P mutants, HEK293/sw cells
[13] = PS1 R278I mutant, HEK293/sw cells
[14] = RO7019009 50 nM, parent: est. 1.0
[15] = RO7019009 500 nM, parent: est. 0.90
[16] = RO7019009 2500 nM, parent: est. 0.49

| Compound | other: V44 CL efficiency (Rel. to DMSO-treated), median (C99 V44Bpa [9]; [14]) | other: V44 CL efficiency (Rel. to DMSO-treated), median (C99 V44Bpa [9]; [15]) | other: V44 CL efficiency (Rel. to DMSO-treated), median (C99 V44Bpa [9]; [16]) | other: V44 CL efficiency (Rel. to DMSO-treated), median (C99 V44Bpa [10]; RO7019009 50 nM) | other: V44 CL efficiency (Rel. to DMSO-treated), median (C99 V44Bpa [10]; RO7019009 500 nM) | other: V44 CL efficiency (Rel. to DMSO-treated), median (C99 V44Bpa [10]; RO7019009 2500 nM) | further results |
| --- | --- | --- | --- | --- | --- | --- | --- |
| CC(C)CC[C@H](c1ccc(Cl)cc1)N1CC[C@@H](CC(=O)O)C[C@H]1c1ccc(C(F)(F)F)cc1 [GSM‐1] |  |  |  |  |  |  | Aβ43 production [1, 11]: only poorly, if at all; Aβ42 levels [1, 12]: remained unaffected; Aβ43 production [1, 13]: weakly reduced |
| Cc1nsc(N2C[C@H]3CC[C@@H](C2)[C@@H]3Nc2nc3c(-c4ccc(F)c(F)c4F)cccn3n2)n1 [RO7019009] |  |  |  |  |  |  | total AICD generation [2]: not or only marginally reduced; crosslinking of C99 V44Bpa to PS1 ([3]; PS1 Y256S and R278I mutants): unchanged crosslinking; crosslinking of C99 V44Bpa to PS1 NTF ([3]; WT PS1, increasing concentrations): reduced; logD [4]: 4; Aβ42 levels ([1]; PS1 L166P mutant, 50 to 500 nM): remained largely unaffected; Aβ42‐lowering response ([1]; PS1 V261F and R278I mutants, 50 to 500 nM): partially resistant; Aβ42 levels ([1]; V261F, R278I and L166P mutants, 500 nM): small, yet significant, reproducible reduction; generation of Aβ43 ([1]; all PS1 mutants, 50 to 500 nM): reduced the generation of Aβ43 for all mutants; total Aβ levels [5]: did not reduce; solubility (Solubility): 3 µg/mL (≈ 6.36 µM); microsomal CLint [6]: < 10 µL/min/mg; Aβ40 levels [7]: nearly complete reduction; microsomal CLint [8]: < 10 µL/min/mg; IC50 (Notch1 cleavage): > 10 µM; PAMPA (permeability) (PAMPA permeability): High |
| COc1cc(Nc2cc(Cc3ccc(Cl)cc3)cc(C(C)(C)O)c2)ccc1-n1cnc(C)c1 [RO‐02] |  |  |  |  |  |  | Aβ43 production [1, 11]: only poorly, if at all; Aβ42 levels [1, 12]: remained unaffected; Aβ43 production [1, 13]: weakly reduced |
| presenilin 1 (PS1) WT (from UniProt P49768) G382A | 0.93 | 0.87 | 0.67 |  |  |  |  |
| presenilin 1 (PS1) WT (from UniProt P49768) L166P | 1 | 0.93 | 0.73 |  |  |  |  |
| presenilin 1 (PS1) WT (from UniProt P49768) L435F |  |  |  | 1 | 0.78 | 0.6 |  |
| presenilin 1 (PS1) WT (from UniProt P49768) M292D |  |  |  | 1.1 | 0.92 | 0.65 |  |
| presenilin 1 (PS1) WT (from UniProt P49768) R278I |  |  |  | 1 | 1 | 0.92 |  |
| presenilin 1 (PS1) WT (from UniProt P49768) V261F |  |  |  | 0.95 | 0.65 | 0.62 |  |
| presenilin 1 (PS1) WT (from UniProt P49768) Y256S | 1.1 | 0.88 | 0.95 |  |  |  |  |
